Laboratory results published in paper PMC8998611, “Identification of Novel GSK-3β Hits Using Competitive Biophysical Assays” (International Journal of Molecular Sciences, 2022).

Legend:
[1] = test system: CDKs; experiment: Eurofins Kinase Diversity Panel, CDKs; assay type: biochemical, human; conditions: 20 µM compound; ATP at Km ± 15 µM
Procedure: (§1) To further characterize the inhibitory activity of the two selected fragments, the selectivity of G5 and G12 towards a panel of 58 kinases of the humane proteome was evaluated using the “Kinase screening and profiling” service of Eurofins, Luxembourg (Kinase Diversity Panel). […] Results are reported in Supplementary Figures S2 and S3.

[2] = target: T1, MEK1 (Homo sapiens, UniProt Q02750); experiment: Eurofins Kinase Diversity Panel, MEK1; assay type: biochemical; conditions: 20 µM compound; ATP at Km ± 15 µM
T1 construct: purchased Eurofins (Kinase Diversity Panel service)
Procedure: as §1

[3] = target: T2, AMPK1α (Homo sapiens, UniProt Q13131); experiment: Eurofins Kinase Diversity Panel, AMPK1α; assay type: biochemical; conditions: 20 µM compound; ATP at Km ± 15 µM
T2 construct: purchased Eurofins (Kinase Diversity Panel service)
Procedure: as §1

[4] = target: T3, CDK9 (Homo sapiens, UniProt P50750); experiment: Eurofins Kinase Diversity Panel, CDK9; assay type: biochemical; conditions: 20 µM compound; ATP at Km ± 15 µM; read-out: inhibitory effect on CDK9
T3 construct: purchased Eurofins (Kinase Diversity Panel service)
Procedure: as §1

[5] = target: T4, ABL (Homo sapiens, UniProt P00519); experiment: Eurofins Kinase Diversity Panel, ABL; assay type: biochemical; conditions: 20 µM compound; ATP at Km ± 15 µM
T4 construct: purchased Eurofins (Kinase Diversity Panel service)
Procedure: as §1

[6] = target: T5, MLK1 (Homo sapiens, UniProt P80192); experiment: Eurofins Kinase Diversity Panel, MLK1; assay type: biochemical; conditions: 20 µM compound; ATP at Km ± 15 µM
T5 construct: purchased Eurofins (Kinase Diversity Panel service)
Procedure: as §1

T1 sequence (Q02750 whole entry): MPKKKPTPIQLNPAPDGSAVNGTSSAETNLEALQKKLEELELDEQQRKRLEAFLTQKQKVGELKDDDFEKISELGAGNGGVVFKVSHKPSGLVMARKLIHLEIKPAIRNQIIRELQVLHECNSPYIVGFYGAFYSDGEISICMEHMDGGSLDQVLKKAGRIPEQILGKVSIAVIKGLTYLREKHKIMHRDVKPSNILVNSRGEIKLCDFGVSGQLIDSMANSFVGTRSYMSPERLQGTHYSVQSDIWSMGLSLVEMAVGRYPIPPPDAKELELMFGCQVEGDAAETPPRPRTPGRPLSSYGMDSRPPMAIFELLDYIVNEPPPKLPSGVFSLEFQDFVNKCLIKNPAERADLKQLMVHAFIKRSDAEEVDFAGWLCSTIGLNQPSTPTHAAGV
T3 sequence (P50750 whole entry): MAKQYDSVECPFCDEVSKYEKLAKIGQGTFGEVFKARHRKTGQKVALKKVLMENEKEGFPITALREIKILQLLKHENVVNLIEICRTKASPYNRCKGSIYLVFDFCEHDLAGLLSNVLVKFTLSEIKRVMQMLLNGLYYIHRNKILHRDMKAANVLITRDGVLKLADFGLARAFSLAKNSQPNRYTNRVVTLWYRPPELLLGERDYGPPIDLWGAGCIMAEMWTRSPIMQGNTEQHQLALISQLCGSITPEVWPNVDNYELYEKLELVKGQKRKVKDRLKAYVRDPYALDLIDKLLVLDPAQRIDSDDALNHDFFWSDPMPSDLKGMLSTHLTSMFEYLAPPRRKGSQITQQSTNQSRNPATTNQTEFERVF
T3 sequence (O60563 whole entry partner): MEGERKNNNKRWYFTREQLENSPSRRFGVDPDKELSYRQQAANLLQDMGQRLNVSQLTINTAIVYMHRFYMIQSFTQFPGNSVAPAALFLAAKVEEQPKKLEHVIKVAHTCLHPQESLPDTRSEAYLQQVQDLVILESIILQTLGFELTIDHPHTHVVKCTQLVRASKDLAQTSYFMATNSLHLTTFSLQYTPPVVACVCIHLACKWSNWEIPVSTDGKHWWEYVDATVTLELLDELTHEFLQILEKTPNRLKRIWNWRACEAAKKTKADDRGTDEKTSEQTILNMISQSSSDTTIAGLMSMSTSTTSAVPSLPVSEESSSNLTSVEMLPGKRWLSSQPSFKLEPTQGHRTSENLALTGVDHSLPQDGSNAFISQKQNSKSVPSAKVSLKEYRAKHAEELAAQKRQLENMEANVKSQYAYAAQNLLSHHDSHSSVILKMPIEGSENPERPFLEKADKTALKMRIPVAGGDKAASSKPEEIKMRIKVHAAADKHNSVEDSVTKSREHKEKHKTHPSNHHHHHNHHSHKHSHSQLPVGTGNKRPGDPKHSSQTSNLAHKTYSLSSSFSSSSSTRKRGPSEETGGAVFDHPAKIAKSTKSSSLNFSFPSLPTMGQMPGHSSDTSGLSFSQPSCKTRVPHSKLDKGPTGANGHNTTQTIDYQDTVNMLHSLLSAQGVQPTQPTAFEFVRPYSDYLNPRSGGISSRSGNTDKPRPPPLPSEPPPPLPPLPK
T5 sequence (P80192 whole entry): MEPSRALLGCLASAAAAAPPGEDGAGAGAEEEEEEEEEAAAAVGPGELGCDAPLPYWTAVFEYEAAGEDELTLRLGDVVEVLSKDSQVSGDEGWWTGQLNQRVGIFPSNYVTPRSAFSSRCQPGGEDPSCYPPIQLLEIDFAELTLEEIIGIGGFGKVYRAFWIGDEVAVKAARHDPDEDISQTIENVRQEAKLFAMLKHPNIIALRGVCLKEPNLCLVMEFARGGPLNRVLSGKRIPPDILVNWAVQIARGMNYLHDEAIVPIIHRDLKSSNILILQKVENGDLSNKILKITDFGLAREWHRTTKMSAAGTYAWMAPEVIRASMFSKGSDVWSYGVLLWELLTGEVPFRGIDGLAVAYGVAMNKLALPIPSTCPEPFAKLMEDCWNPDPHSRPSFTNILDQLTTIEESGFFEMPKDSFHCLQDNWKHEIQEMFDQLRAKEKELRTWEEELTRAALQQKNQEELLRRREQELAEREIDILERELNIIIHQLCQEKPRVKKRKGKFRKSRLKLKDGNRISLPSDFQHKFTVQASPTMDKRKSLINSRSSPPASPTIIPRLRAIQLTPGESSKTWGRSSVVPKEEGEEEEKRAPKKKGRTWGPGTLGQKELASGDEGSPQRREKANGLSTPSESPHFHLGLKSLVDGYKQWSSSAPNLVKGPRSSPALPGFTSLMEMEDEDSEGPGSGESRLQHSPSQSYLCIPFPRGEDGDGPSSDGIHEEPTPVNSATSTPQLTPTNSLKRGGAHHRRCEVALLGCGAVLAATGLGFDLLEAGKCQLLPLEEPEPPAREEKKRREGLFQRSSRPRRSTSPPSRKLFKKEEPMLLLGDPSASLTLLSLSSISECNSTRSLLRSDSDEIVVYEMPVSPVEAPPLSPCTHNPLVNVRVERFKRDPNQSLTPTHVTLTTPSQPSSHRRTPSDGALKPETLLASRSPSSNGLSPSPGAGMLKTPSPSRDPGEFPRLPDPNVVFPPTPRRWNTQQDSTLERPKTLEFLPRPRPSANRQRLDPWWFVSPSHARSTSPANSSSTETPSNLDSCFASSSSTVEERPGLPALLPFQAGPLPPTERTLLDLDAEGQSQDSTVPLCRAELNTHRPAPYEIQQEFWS
T2 sequence (Q13131 whole entry): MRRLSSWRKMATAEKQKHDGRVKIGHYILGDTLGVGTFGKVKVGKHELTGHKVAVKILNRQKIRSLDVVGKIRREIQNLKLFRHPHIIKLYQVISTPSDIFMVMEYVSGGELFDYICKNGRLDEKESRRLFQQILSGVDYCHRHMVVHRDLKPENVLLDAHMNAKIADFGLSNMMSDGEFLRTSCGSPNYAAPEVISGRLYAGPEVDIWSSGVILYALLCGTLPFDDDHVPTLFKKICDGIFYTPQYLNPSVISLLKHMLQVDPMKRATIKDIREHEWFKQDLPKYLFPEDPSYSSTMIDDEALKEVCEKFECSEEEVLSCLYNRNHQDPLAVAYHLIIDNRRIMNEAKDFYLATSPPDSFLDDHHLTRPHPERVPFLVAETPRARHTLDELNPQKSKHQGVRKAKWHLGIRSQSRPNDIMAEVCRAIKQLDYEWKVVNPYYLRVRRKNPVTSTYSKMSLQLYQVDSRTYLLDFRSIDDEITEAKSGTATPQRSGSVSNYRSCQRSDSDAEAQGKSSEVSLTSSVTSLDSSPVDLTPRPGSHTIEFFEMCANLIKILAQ
T2 sequence (Q9Y478 whole entry partner): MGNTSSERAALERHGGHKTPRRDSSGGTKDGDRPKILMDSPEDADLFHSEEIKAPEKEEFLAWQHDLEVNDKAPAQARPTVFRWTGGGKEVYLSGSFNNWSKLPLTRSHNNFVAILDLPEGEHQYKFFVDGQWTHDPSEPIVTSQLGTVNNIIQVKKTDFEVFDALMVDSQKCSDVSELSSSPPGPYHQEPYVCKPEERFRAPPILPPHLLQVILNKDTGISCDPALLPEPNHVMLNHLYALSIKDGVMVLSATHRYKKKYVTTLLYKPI
T2 sequence (P54619 whole entry partner): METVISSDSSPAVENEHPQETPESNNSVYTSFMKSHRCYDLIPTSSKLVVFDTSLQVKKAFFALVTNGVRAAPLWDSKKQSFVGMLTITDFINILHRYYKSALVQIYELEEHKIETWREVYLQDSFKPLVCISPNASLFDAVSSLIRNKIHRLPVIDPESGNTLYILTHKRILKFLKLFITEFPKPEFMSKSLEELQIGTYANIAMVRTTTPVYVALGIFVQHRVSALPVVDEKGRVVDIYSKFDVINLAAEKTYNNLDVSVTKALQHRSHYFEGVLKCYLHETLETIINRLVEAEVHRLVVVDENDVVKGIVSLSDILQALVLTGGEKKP
T4 sequence (P00519 whole entry): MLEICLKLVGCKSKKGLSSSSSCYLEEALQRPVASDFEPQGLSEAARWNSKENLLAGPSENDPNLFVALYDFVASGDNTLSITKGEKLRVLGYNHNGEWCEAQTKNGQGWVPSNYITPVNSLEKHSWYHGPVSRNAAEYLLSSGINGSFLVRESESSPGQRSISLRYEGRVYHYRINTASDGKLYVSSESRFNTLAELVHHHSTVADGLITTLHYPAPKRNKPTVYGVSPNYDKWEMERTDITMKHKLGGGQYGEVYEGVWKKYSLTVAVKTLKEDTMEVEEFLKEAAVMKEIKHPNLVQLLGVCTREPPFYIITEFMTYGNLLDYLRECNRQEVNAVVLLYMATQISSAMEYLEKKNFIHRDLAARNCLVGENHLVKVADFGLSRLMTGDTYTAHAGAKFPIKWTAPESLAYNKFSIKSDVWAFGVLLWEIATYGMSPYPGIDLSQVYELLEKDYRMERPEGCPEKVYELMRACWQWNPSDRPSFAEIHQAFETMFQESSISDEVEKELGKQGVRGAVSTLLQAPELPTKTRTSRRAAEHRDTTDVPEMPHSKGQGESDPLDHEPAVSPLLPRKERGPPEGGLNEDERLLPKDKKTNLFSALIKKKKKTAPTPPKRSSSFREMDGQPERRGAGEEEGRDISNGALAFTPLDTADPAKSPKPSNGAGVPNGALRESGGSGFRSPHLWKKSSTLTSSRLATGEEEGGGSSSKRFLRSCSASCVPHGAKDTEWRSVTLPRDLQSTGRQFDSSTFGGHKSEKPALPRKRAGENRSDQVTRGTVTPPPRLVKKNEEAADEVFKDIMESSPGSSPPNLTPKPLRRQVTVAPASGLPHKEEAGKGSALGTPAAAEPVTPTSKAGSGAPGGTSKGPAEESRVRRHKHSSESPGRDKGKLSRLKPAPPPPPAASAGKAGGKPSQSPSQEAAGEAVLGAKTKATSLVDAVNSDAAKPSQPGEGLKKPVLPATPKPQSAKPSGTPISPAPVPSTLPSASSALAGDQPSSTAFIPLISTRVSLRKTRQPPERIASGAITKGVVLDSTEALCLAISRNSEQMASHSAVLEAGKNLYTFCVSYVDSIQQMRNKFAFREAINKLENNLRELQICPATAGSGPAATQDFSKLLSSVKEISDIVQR

| inhibitory effect on MEK1 [2] | inhibitory effect on AMPK1α [3] | inhibition at 20 µM [4] [%] | inhibitory effect on ABL [5] | inhibitory effect on MLK1 [6] | SMILES | inhibitory activity on CDKs [1] |
| --- | --- | --- | --- | --- | --- | --- |
| only marginally affected | only marginally affected | – | – | – | CS(=O)(=O)N1CC(c2nc(N)ncc2-c2ccc(F)cc2)C1 [G5] | did not show any evident inhibitory activity |
| – | – | 50 | no inhibitory effect | no inhibition | O=C(Nc1ccccn1)C1CCN(C(=O)CCc2ccccc2F)C1 (stereo not drawn) [G12] | – |
